Reference: patent publication US20250041377A1, “PHARMACEUTICAL USE” (ENLITISA (SHANGHAI) PHARMACEUTICAL CO., LTD., priority 2018, published 2025)
Where a SMILES comes first, the peptide text is derived from it. [ ]: non-standard residue; d: D form. Hyp = O=C(O)[CH]1C[CH](O)CN1

Experiments:
fever = experiment: Aerosol inhalation to treat fever; assay type: in vivo, human
Description: The same formulation as described in Example 14 above was administered to a subject who enrolled in the study having had got a fever (a body temperature over 38.5° C.) for 1 day. Other anti-fever medications were not used prior to treatment.
The subject was required to use the aerosol inhalation device in the morning and in the evening by pouring 3 mL of the formulation into an atomizer storage tank connected to an atomizer and a mask, which was worn over the mouth and nose.

[1] = tested on: allergic skin (redness, itching, swelling); experiment: Liquid spray to treat allergic dermatitis; assay type: in vivo, human
Description: Compound B (see Example 1 above) was dissolved in Water for Injection (WFI; prepared from a TC-RO-0.25/h-2 Water Treatment System, Yangzhou Tiancheng Water Treatment Devices & Engineering Co., Ltd., Yangzhou, China). The concentration was 0.3 mg/mL.
The enrolled subjects in the study had allergic skin. Prior to treatment, the patients presented symptoms including skin redness, itching and swelling. Subjects were required to use the liquid spray in the morning and the evening after facial cleansing.

ammonia induced cough = experiment: Antitussive experiment, ammonia induced cough method; assay type: in vivo, ICR mice
Description: 36 ICR mice were randomly divided into 3 groups according to their body weight, labelled a CMC-Na (Negative) control group, a dextromethorphan hydrobromide (Positive) control group and a Compound B (B) group. Each group contained 12 mice, with 6 males and 6 females in each.
Compound B was administered via atomization inhalation using a YLS-8A Multifunctional cough and sputum inducing device (Jinan Yiyan Science and Technology Co., Ltd.) (0.15 ml/min) for 1 minute, once daily for 5 days. And the positive control drug was administered once daily by intragastric administration at 10 mg/kg for 5 days.
The mice were placed in an inverted beaker 1, 2, and 4 hours after the last drug administration. 1 mL of aqueous ammonia (25.0 to 28.0%) was placed on top of a boiling water bath and was evaporated into the beaker.
The time for mice to receive ammonia exposure was determined by a method characterized by analyzing data immediately after one test or a batch of tests. The results of the previous analysis determined how to conduct the next test or batch of tests.
The difference between the logarithmic value of two adjacent time periods was 0.1.
The number of coughs within 1 minute was detected using a stethoscope. If a mouse coughed three or more times over one minute, this was labelled as called ‘cough’, and less than three times in one minute was labelled ‘cough free’.
The EDT50 was defined as the ammonia stimulating time at which half mice developed a “cough”, calculated by the equation: […]
(c equals the sum of r and x, r is the number of animals in each stimulating time group, x is the logarithm of stimulation time and n was the number of animals in each group). lg is a base 10 logarithmic value.
In Table 15, R is the EDT50 in treatment group divided by the EDT50 in the Control group expressed as a percentage.

[2] = tested on: bleomycin-induced pulmonary fibrosis; experiment: Idiopathic pulmonary fibrosis (IPF) model; assay type: in vivo, Sprague Dawley rats; design: lung coefficient: unit not given here
Description: Experimental animals and grouping: 40 adult male Sprague Dawley rats, after 7 days of adaptive feeding, were divided into 4 groups: sham-operation group (Sham), IPF model group (no treatment; Model), test group (Compound B) and positive control group (Positive Control).
The test were administered Compound B, at a dose of 130 μg/rat, which was introduced by aerosolized inhalation. Oral administration of pirfenidone (Etuary®, Beijing Continent Pharmaceutical Co., Ltd., Beijing, China) as a 120 mg/kg single-bolus dose served as the positive control.
A pulmonary fibrosis model was established by intratracheal instillation of bleomycin. The rats were anaesthetised and placed on an operating table in the supine position, to expose the trachea. Bleomycin (5 mg/kg) saline solution was injected into the trachea through the gap between the tracheal cartilage rings. The sham-operation group were given an equal volume of normal saline. Shortly after administration, the rats were lifted vertically and were rotated, in order to evenly disperse the drug. Once the rats had recovered, after approximately 5 days, they were administrated the different drugs according to the plan for 28 days, consecutively.
The exhaust volume of the atomizing device was 0.15 mL per minute. The inhalation time for each rat was 1 minute.
At Day 29 following drug administration, rats were anesthetized by i.p. injection of chloral hydrate. After orbital blood collection, the rats were sacrificed. The thoracic cavity was quickly opened and the lung was collected for further analysis. The lung wet weight was measured, and the lung coefficient was calculated (lung wet weight/rat weight×1000). The tissue was stored in refrigerator at −80° C. for further use.
A piece of lung tissue was accurately weighed, and 9 times the weight of saline was added. Then, the tissue was homogenized and centrifuged for 10 minutes at 3000 rpm. The homogenate was used to detect the expression of the transformation growth factor (TGF-β1), tumor necrosis factor-α (TNF-α) and alpha-smooth muscle actin (α-SMA). Standard ELISA methods were used for the detection. The contents of malonaldehyde (MDA) and the activity of superoxide dismutase (SOD) in lung tissue were also detected.

closed comedones = experiment: Cream to treat closed comedones; assay type: in vivo, human; conditions: cream 0.1 mg/g, morning and evening
Description: Compound B (10 mg; see Example 1 above) was first dissolved in WFI (10 g).
A mixture was then made comprising sorbitan stearate (2 g), cetyl alcohol (4 g), octanoic/capric glyceride (6 g) and glyceryl monostearate (3 g) (all Sinopharm Chemical Reagent Co. Ltd.), which was stirred and heated to 85° C. to melt the mixture completely.
Glycerin (5 g; Sinopharm Chemical Reagent Co. Ltd.) and ammonium acryloyldimethyltaurate/VP copolymer (0.13 g; Clariant Chemical (Guangzhou) Co., Ltd., China) were mixed with 68.86 g of WFI. This mixture was stirred and heated to 85° C. to provide a homogeneous colloidal suspension.
The copolymer/water mixture was added to the sorbitan stearate-containing mixture, which was then quickly stirred using emulsification equipment for 5 minutes. The resultant emulsion was cooled to room temperature.
The Compound B solution was then added to the resultant mixture with stirring to obtain the finished cream. The concentration of Compound B in the final cream was 0.1 mg/g.
Subjects with closed comedones (blocked pores) and in an acute attacking period of acne were enrolled in the study. Symptoms included sebaceous glands blocked by keratinocytes, forming a slightly hard lump and a protruding white head.
The cream was evenly smeared in the morning and evening after facial cleansing.

[3] = lung tissue homogenate, Day 29, Compound B 130 μg/rat aerosolized inhalation, pirfenidone gavage, 28 days

## CC(N)C(=O)NC(CCCCN)C(=O)N1CCCC1C(=O)NC(CO)C(=O)NC(Cc1ccc(O)cc1)C(=O)N1CC(O)CC1C(=O)N1CC(O)CC1C(=O)NC(C(=O)NC(Cc1ccc(O)cc1)C(=O)NC(CCCCN)C(=O)O)C(C)O (stereo not drawn) [Compound B, Ala-Lys-Pro-Ser-Tyr-Hyp-Hyp-Thr-Tyr-Lys] (H-AKPSY[Hyp][Hyp]TYK-OH; configuration not given here)
fever; 0.5 mg/mL aerosol inhalation, morning and evening
  recurrence of fever symptoms: did not recur after 3 uses
fever; 0.5 mg/mL, 3 mL aerosol inhalation, subject with body temperature over 38.5° C.
  body temperature: within two hours, their body temperature had dropped to normal
[1]; liquid spray 0.3 mg/mL in Water for Injection, first use, subjects with allergic skin
  time to relief of itching: ≤ 8 min
[1]; liquid spray 0.3 mg/mL, morning and evening, after 1 day of use
  capillary congestion, facial redness and swelling: no longer red and swollen after 1 day of use
Ammonia induced cough; 1 hour after admin., EDT50 in treatment group divided by EDT50 in Control group
  R: 131.7%
Ammonia induced cough; 1 hour after last administration, B 195 μg/mouse atomization inhalation, Positive 10 mg/kg intragastric, once daily 5 days
  EDT50: 28.2 s
Ammonia induced cough; 2 hours after admin., EDT50 treatment/Control
  R: 131.8%
Ammonia induced cough; 2 hours after last administration
  EDT50: 28.2 s
Ammonia induced cough; 4 hours after admin., EDT50 treatment/Control
  R: 100 [???] %
Ammonia induced cough; 4 hours after last administration
  EDT50: 26.9 s
Ammonia induced cough; at 1 and 2 hours
  effect on cough relief: positive effect on cough relief
[2]; compared with pirfenidone
  inhibition of production of TNF-α, α-SMA and TGF-β1 in lung tissue: almost equivalent to that of the known IPF drug, pirfenidone
[2]; [3]
  TGF-β1: 0.40 ± 0.02 ng/mg protein
  TNF-α: 187.91 ± 12.20 pg/mg protein
  α-SMA: 10.85 ± 1.42 pg/mg protein
[2]; lung tissue, Day 29
  MDA: 0.17 ± 0.04 U/mg protein
  SOD: 48.64 ± 1.85 U/mg protein
[2]; lung wet weight/rat weight×1000, Day 29
  lung coefficient: 5.14 ± 0.37
Closed comedones
  lumps of closed comedones: disappeared after 1 day of use
